Results on twelve molecules are retold here after ChEMBL document CHEMBL1201862, “PubChem BioAssay data set” (2004).

What all share (assay): growth of human tumour cells (NCI), 48 h
Assay [1] relates to SNB-19.
The test system of assay [2] is K562.
The test system of assay [3] is A498.
Assay [4] deals with HCT-15.
Assay [5] relates to SK-OV-3.
For assay [6], the system named is BT-549.
For assay [7], the system named is LOX IMVI.
The subject of assay [8] is ACHN.
In assay [9] the test system is SW-620.
The test system of assay [10] is RPMI-8226.
Assay [11] has as its system MDA-N.
In assay [12] the test system is A549.
Assay [13] relates to UACC-62.
For assay [14], the system named is MDA-MB-231.
Assay [15] relates to Malme-3M.
Assay [16] deals with IGROV-1.
The subject of assay [17] is NCI-H226.
The test system of assay [18] is SNB-75.
Assay [19] deals with NCI-H522.

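Briefly, cells in 96-well plates were exposed to five compound concentrations for 48 h, and endpoints were estimated by linear interpolation. GI50 is the concentration that inhibits growth by half.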 Activity calls are given as the source filed them. Rule as the data show it: active = GI50 up to about 1.1 µM and inactive = higher.

Consider `C#CCOC(=O)C(=[N+]=[N-])C(=O)CC(C)C`, for which the GI50 in assay [1] is > 10 µM (inactive); in assay [2], > 10 µM (inactive); in [3], > 10 µM (inactive); in assay [4] it was greater than 10 µM; in assay [5] it was > 10 µM (inactive); in [6] it was > 10 µM (inactive). The GI50 in assay [7], in [8], in assay [9], in assay [10], in [11] and in [12] was > 10 µM (inactive) each time. For the same molecule, the GI50 in assay [13], in assay [14], in assay [15], in assay [16] and in [17] was > 10 µM (inactive) throughout.

On to `CCOC(=O)C(Cc1cn(S(=O)(=O)c2ccc(C)cc2)cn1)P(=O)(OCC)OCC` (stereo not given), for which the GI50 is > 100 µM (inactive) in assay [1]; > 100 µM (inactive) in assay [2]; greater than 100 µM in assay [4]; > 100 µM (inactive) in assay [5]; > 100 µM (inactive) in assay [6]; > 100 µM (inactive) in assay [7]. For the same molecule, the GI50 in [8], in [18], in assay [9], in assay [10], in assay [11] and in [12] was > 100 µM (inactive) throughout. For the same molecule, the GI50 in assay [13], in assay [19], in [14], in [15], in assay [16] and in assay [17] was > 100 µM (inactive) throughout.

With `O=c1c2ccccc2[nH]c(=S)n1-c1ccc(/N=N/c2cccc3cc(O)ccc23)cc1`, the GI50 in [1] was > 100 µM (inactive); in [2], 73.6 µM (inactive); in [4] it was 36.3 µM; in [5], > 100 µM (inactive); in assay [6], > 100 µM (inactive); in [7], 43.5 µM (inactive). Moreover, the GI50 in assay [8], in assay [18], in assay [9], in assay [10], in assay [11] and in assay [12] was > 100 µM (inactive) in each case. Besides, the GI50 was 49.2 µM (inactive) in [13]; > 100 µM (inactive) in assay [19]; 48.4 µM (inactive) in [14]; > 100 µM (inactive) in assay [15]; 64.9 µM (inactive) in assay [16]; > 100 µM (inactive) in assay [17].

`Clc1ccc(C2=CCN3CC=C(c4ccc(Cl)cc4)C23)cc1`: the GI50 in [1] was 14.5 µM (inactive); in [2] it was 3.17 µM (inactive); in assay [4] it was 11.1 µM; in assay [6], 11.6 µM (inactive); in [7] it was 8.34 µM (inactive); in [8], 13.7 µM (inactive). In addition, the GI50 in [9] was 13.3 µM (inactive); in assay [10], 4.66 µM (inactive); in assay [11], 10.8 µM (inactive); in assay [12], 14.2 µM (inactive); in assay [13], 7.24 µM (inactive); in [19], 10.2 µM (inactive). The GI50 in assay [14] was 12.4 µM (inactive); in assay [15] it was 13.6 µM (inactive); in assay [16], 9.93 µM (inactive); in assay [17], 24 µM (inactive).

`O=C1O/C(=C(/Cl)c2cccc3ccccc23)c2ccccc21`: the GI50 in [1] was > 100 µM (inactive); in [2], > 100 µM (inactive); in assay [3] it was > 100 µM (inactive); in assay [4], greater than 100 µM; in assay [5], > 100 µM (inactive); in [6] it was > 100 µM (inactive). Besides, the GI50 in [18] is 22.2 µM (inactive); in assay [9] it was > 100 µM (inactive); in [10] it was > 100 µM (inactive); in assay [11] it was > 100 µM (inactive); in assay [12], > 100 µM (inactive); in assay [13], > 100 µM (inactive). Also, the GI50 in [19] is 52.1 µM (inactive); in [15], > 100 µM (inactive); in assay [16] it was > 100 µM (inactive).

For the molecule `CC1(C)CC(=O)C2(CC(CSc3ccccc3)C(CS(=O)(=O)c3ccccc3)C2)C(=O)C1` (stereo not given), the GI50 is > 100 µM (inactive) in [1]; > 100 µM (inactive) in assay [2]; > 100 µM (inactive) in assay [3]; greater than 100 µM in assay [4]; > 100 µM (inactive) in [5]; > 100 µM (inactive) in [6]. For the same molecule, the GI50 is > 100 µM (inactive) in assay [7]; > 100 µM (inactive) in assay [8]; 4.85 µM (inactive) in assay [18]; > 100 µM (inactive) in assay [9]; 66.4 µM (inactive) in [10]; > 100 µM (inactive) in [12]. Besides, the GI50 in [13], in assay [19], in [14], in assay [16] and in assay [17] was > 100 µM (inactive) throughout.

In the case of `c1ccc(-c2ccc(-c3cc4ccccc4[nH]3)cc2)cc1`, the GI50 is > 100 µM (inactive) in [1]; greater than 100 µM in assay [4]; > 100 µM (inactive) in assay [5]; > 100 µM (inactive) in [6]; > 100 µM (inactive) in assay [7]; > 100 µM (inactive) in [8]. For the same molecule, the GI50 in assay [18], in [9], in assay [10], in assay [11], in [12] and in assay [13] was > 100 µM (inactive) each time. In addition, the GI50 in assay [19] was 60.3 µM (inactive); in assay [14] it was > 100 µM (inactive); in assay [15] it was > 100 µM (inactive); in [16], > 100 µM (inactive); in assay [17], > 100 µM (inactive).

As to `CCc1nnc(CC)n1NCCCC(=O)O`, the GI50 was > 100 µM (inactive) in assay [1]; > 100 µM (inactive) in assay [2]; greater than 100 µM in assay [4]; > 100 µM (inactive) in [5]; > 100 µM (inactive) in [6]; > 100 µM (inactive) in [7]. The GI50 in assay [8], in [18], in assay [9], in [10], in assay [11] and in assay [12] was > 100 µM (inactive) in each case. The GI50 in assay [13], in [19], in [14] and in assay [16] was > 100 µM (inactive) in each case.

`O=C(CSCC(=O)N/N=C/c1ccccc1)N/N=C\c1ccccc1`: the GI50 in [1] was > 100 µM (inactive); in assay [2], > 100 µM (inactive); in [4], greater than 100 µM; in assay [5], > 100 µM (inactive); in assay [6], 2.2 µM (inactive); in assay [7], > 100 µM (inactive). In addition, the GI50 in assay [8] was > 100 µM (inactive); in assay [18], > 100 µM (inactive); in assay [9], > 100 µM (inactive); in assay [10], 38.1 µM (inactive); in assay [12] it was > 100 µM (inactive); in assay [13], > 100 µM (inactive). In addition, the GI50 in [19], in assay [14], in assay [15], in [16] and in assay [17] was > 100 µM (inactive) each time.

With `Nc1ccc(S(=O)(=O)Nc2nc3ccccc3nc2Nc2ccc(S(N)(=O)=O)cc2)cc1`, the GI50 was 25.2 µM (inactive) in assay [1]; 69.8 µM (inactive) in assay [2]; 37.7 µM in [4]; 29.8 µM (inactive) in assay [5]; 20.2 µM (inactive) in [6]; 17.9 µM (inactive) in assay [7]. The GI50 in assay [8] was 42.7 µM (inactive); in assay [18], 13.6 µM (inactive); in assay [9], 36.9 µM (inactive); in [10], 33.7 µM (inactive); in assay [11], 56.6 µM (inactive); in [12], 47.1 µM (inactive). Besides, the GI50 in [13] was 30.8 µM (inactive); in assay [19] it was 23.3 µM (inactive); in assay [14] it was 53.8 µM (inactive); in assay [15], 22.8 µM (inactive); in assay [16] it was 21.8 µM (inactive); in [17] it was 56.4 µM (inactive).

As for `COc1c(-c2nc3ccc(N4CCN(C)CC4)nc3[nH]2)cc(OC)c2c1nc(CCl)n2C`, the GI50 was 28.2 µM (inactive) in assay [1]; 29 µM (inactive) in assay [2]; 26.3 µM in assay [4]; 28.8 µM (inactive) in [5]; 18.6 µM (inactive) in assay [6]; 10.8 µM (inactive) in [7]. In addition, the GI50 in assay [8] is 13.7 µM (inactive); in assay [18] it was 12.6 µM (inactive); in assay [9], 20.9 µM (inactive); in [10], 10.5 µM (inactive); in assay [11] it was 30.5 µM (inactive); in [12] it was 27.8 µM (inactive). Further, the GI50 in [13] is 10.4 µM (inactive); in assay [19] it was 10.5 µM (inactive); in assay [14], 19.2 µM (inactive); in [15], 17.5 µM (inactive); in [16] it was 18.4 µM (inactive); in [17], 19.9 µM (inactive).

In the case of `NC1CC(=O)c2cscc21` (stereo not given), the GI50 was 53.3 µM (inactive) in assay [1]; 42.1 µM (inactive) in [2]; 25.4 µM in assay [4]; > 100 µM (inactive) in assay [5]; 58.9 µM (inactive) in assay [6]; 31.8 µM (inactive) in [7]. Further, the GI50 in [18] is > 100 µM (inactive); in [9] it was 17.6 µM (inactive); in assay [10], 4.46 µM (inactive); in [11] it was > 100 µM (inactive); in assay [12] it was 14.1 µM (inactive); in assay [14] it was > 100 µM (inactive). Besides, in assay [16], the GI50 was > 100 µM (inactive).
